# Experimental data: US9730906B2, “α-derivatives of cis-monounsaturated fatty acids for use as medicines” (UNIVERSITAT DE LES ILLES BALEARS, priority 2008, dated 2017)
# Tests used:
# [1] = test system: A549 cells of human lung adenocarcinoma; assay: Prevention of tumour development in nude mice injected with A549 cells; type: in vivo; settings: 400 mg/kg per day oral, 2 weeks before and one month after A549 injection, compared with fatty acids not of Formula I, p<0.05
# Description: FIG. 2. Preventative effect of various fatty acids against tumour development. […] Animals received treatment before injection of tumour cells and the treatment was subsequently maintained. Animals of the control group were not treated and the volume of their tumours was taken as the reference value (100%).
# To determine whether the fatty acids of the invention have applications in the prevention of the development of tumour processes, an animal cancer model was used. This model consisted of immune-deprived animals ([Crl:Nu(Ico)-Fox 1] nude mice in which non-microcytic human lung cancer cells were injected (5×10^6 A549 cells per animal). The control group (infected with cancer cells but untreated) started to develop tumours that were visible after a few days. The sizes of the tumours were measured for the first time at 10 days after implanting the tumour and measurements continued for up to 31 days after the implantation with a digital calliper. The volume of the tumours was calculated with the following equation: v=w^2×l/2 where v is the volume of the tumour, w is its width and l is the length. Preventative treatments against development of the cancer were applied. To carry out these treatments, 400 mg/kg were administered per day for 2 weeks before the injection of tumour cells. This treatment was continued for one month after the implantation of the tumour cells and the volume of the tumours in the animals was measured. Each experimental group was composed of 8 animals. Oral administration of α-derivatives of cis-monounsaturated fatty acids prevented cancer development (A549 cells of human lung adenocarcinoma) (FIG. 2). […] Therefore it was concluded that the introduction of a double bond in the cis configuration in the structure of the fatty acid is a critical factor in the prevention and treatment by fatty acids of cancer development.
# [2] = Rat obesity induced by cafeteria diet, preventative pre-treatment (Table 3); type: in vivo, Wistar Kyoto rats; settings: 300 mg/kg oral, after two weeks on cafeteria diet; obese control 308 ± 17, lean control 280 ± 16; * lower than obese controls, ‡ indistinguishable
# Method: (§1) In a further experiment, the effect of various molecules at a single dose (600 mg/kg) was investigated. […] In this sense, modification on the α-carbon and the double bond in cis configuration are crucial elements for producing the therapeutic effect indicated above. […] Finally, the effect of α-derivatives of cis-monounsaturated fatty acids on the prevention of obesity was investigated. For this, a model of rat obesity induced by a cafeteria diet, where the hypercaloric food increases the weight of the animals very markedly, was used. There were various experimental groups (see Table 3), each of which consisted of 6 female Wistar Kyoto rats of 250-300 g in weight. All the animals received a standard diet for 2 weeks. In addition, 2 of the groups received an oral preventative pre-treatment of vehicle and the other groups received 300 mg/kg of the fatty acids indicated below. Afterwards, one of the control groups was maintained on a standard diet (lean control) and the other was fed on a cafeteria diet (obese control). The treated animal groups were fed on the cafeteria diet. Preventative pre-treatment was maintained for all the groups. After two weeks on these diets, the lean control group had increased their body weight by an average of 16±16 g, while the obese control group had increased their body weight by an average of 43±17 g (statistically significance difference, p<0.01).
# (§2) The weight of treated animals was statistically less than the weight of obese control rats and statistically indistinguishable from that of lean control rats.
# IL-6 = assay: Proinflammatory cytokines in U937 monocytes stimulated with LPS; type: cell-based, human; settings: 250 μM, 72 h; Control 24 ± 3, LPS 1072 ± 4
# Method: (§3) FIG. 18. Levels of interleukin 6 IL-6 (left bar) and […] TNF-α (right bar) in human monocytes in the absence (control) or presence of a pro-inflammatory treatment with bacterial lipopolysaccharide (LPS). Cells treated with LPS were cultured in the absence (Control+LPS) or presence of various fatty acids shown on the horizontal axis.
# (§4) In an additional study on the release of various proinflammatory cytokines (IL-1b, IL-6, IL-8, IL-10) and TNF-α in U937 monocytes stimulated with bacterial lipopolysaccharide (LPS), a marked reduction in the levels of these molecules was observed after treatments with OHHD at a concentration of 250 μM and 72 h incubation (Table 4). The effect of the α-derivatives of cis-monounsaturated fatty acids (250 μM, 6 h) on the activity and expression of the COX-1 and COX-2 cyclooxygenases was investigated in the same system.
# TNF-α = assay: as above; type: cell-based, human; settings: 250 μM, 72 h; Control 15 ± 6, LPS 1504 ± 7
# Method: as §3, §4
# IL-10 = assay: as above; type: cell-based, human; settings: 250 μM, 72 h; Control 32 ± 1, LPS 315 ± 9
# Method: as §4
# IL-1b = assay: as above; type: cell-based, human; settings: 250 μM, 72 h; Control 12 ± 2, LPS 132 ± 2
# Method: as §4
# IL-8 = assay: as above; type: cell-based, human; settings: 250 μM, 72 h; Control 345 ± 7, LPS 967 ± 8
# Method: as §4
# [3] = molecular target: T1, cyclooxygenases-1 (COX-1) (Homo sapiens, UniProt P23219); assay: COX-1 activity in U937 differentiated monocytes (Cayman COX-1 inhibitor screening system); type: cell-based; settings: 250 μM, 6 hours; compared with fatty acids not of Formula I, p<0.05
# T1 construct: endogenous in cells; host or cells: U937 differentiated monocytes
# T1 sequence (P23219 24-599): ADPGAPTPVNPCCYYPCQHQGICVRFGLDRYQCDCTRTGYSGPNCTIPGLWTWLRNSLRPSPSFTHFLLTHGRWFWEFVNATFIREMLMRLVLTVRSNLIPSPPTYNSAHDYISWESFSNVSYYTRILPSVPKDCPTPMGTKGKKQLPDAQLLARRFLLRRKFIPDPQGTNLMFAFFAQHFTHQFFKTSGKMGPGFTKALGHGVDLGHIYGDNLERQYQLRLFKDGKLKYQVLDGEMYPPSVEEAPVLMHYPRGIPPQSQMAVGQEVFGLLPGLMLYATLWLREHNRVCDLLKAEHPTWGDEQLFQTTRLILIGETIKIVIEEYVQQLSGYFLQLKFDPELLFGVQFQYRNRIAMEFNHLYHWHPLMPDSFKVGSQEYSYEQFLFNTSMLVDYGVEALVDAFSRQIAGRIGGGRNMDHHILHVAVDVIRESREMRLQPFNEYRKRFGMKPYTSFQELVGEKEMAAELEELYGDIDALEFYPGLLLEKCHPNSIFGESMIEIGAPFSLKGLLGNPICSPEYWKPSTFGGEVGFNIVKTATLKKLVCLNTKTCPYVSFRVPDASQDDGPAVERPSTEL
# Method: FIG. 19A. Effect of various fatty acids in the inhibition of the activity of cyclooxygenases-1 (COX-1) (Cayman COX-1 inhibitor screening system). […] Cell cultures (U937 differentiated monocytes) were treated with the fatty acids of the invention (250 μM, 6 hours).
# as §4
# cyclooxygenase-2 (COX-2) = assay: Cellular concentration of COX-2 in U937 differentiated monocytes (immunoblot); type: cell-based, human; settings: 250 μM, 6 hours; compared with fatty acids not of Formula I, p<0.05
# Method: FIG. 19B. Effect of various fatty acids in the inhibition (concentration of protein) of cyclooxygenase-2 (immunoblot of COX-2). […] Cell cultures (U937 differentiated monocytes) were treated with the fatty acids of the invention (250 μM, 6 hours).
# as §4
# A549 cells = assay: Growth/viability of A549 lung cancer cells in culture (cell count); type: cell-based, human; settings: concentration that reduces the number of cells to half
# Method: FIG. 3A. Cancer cells (A549) were treated with various concentrations of OHOD and MOD11 to determine whether the effect was dependent on the concentration. […] These cells were treated with different concentrations (0-400 μM) of OHOD and MOD11 and the number of cells was determined by flow cytometry.
# FIG. 3B. Cancer cells (A549) were treated with compounds indicated on the horizontal axis for 48 hours at 150 μM. Then, the cells were counted and their number and percent of untreated (control) represented on the vertical axis.
# Also, a series of α-derivatives of cis-monounsaturated fatty acids were used to investigate their effectiveness in cancer treatment. Two types of experiment were performed. Firstly, the dependency of the anti-tumour effect on concentration was investigated. To perform these experiments, human lung cancer cells (A549) were cultivated in RPMI medium, supplemented with 10% foetal bovine […], 10 mM Hepes (pH 7.4), 2 mM glutamine, 2 g/l bicarbonate, 1 g/l glucose, 100 units/ml penicillin, 0.1 mg/ml streptomycin, 0.25 μg/ml Amphotericin B, at 37° C. and in the presence of 5% CO2. In a first experimental series, these cells were treated with various concentrations (0-400 μM) of OHOD and MOD11 and the number of cells was determined by flow cytometry (FIG. 3A). […] In a second series, the anti-tumour effectiveness on A549 lung cancer cells was investigated at a single concentration (150 μM) and a time of 48 hours (FIG. 3B). […] Obviously, among the previous molecules, some lacked both modifications on the α-carbon and the double bond in cis configuration (EO, HDO, ODO) and had no therapeutic effect. […]
# SF767 human tumour cells = assay: Growth of SF767 tumour cells in culture; type: cell-based; settings: concentration that reduces the number of cells to half
# Method: In a second experimental series, designed to discover whether these molecules are effective in treatment of different types of tumours, the effect of OHOD at various concentrations on human cells of different types of cancer was studied. These experiments were performed as described before, except that the M220 and HT-29 cell lines were cultured in DMEM medium and the MDA-MB-231 line was incubated in Leibowitz L-15 medium supplemented with 15% foetal bovine […]. […] Where the nature of the tumour process requires, application can be topical (use on the skin of active products for the treatment of melanoma and other cutaneous abnormalities of cancerous nature), which can be considered as cosmetic treatments when attempts are made to correct aesthetic defects.
# [4] = test system: SF767 human brain cancer cells; assay: Tumour volume in nude mice infected with SF767 human brain cancer cells; type: in vivo; settings: 600 mg/kg daily for 50 days, p<0.001 vs control
# Method: FIG. 6A. Effect of different salts of OHOD on human lung cancer in an animal cancer model. The volume of tumours in nude mice infected with SF767 human brain cancer cells (expressed as a percent compared to control) receiving various treatments. The animals received a vehicle (water: Control), 600 mg/kg of OHOD in the form of free fatty acid (OHOD), 600 mg/kg of sodium salt of OHOD (Na-OHOD) or 600 mg/kg of ammonium salt of OHOD (NH3OHOD) daily for 50 days.
# FIG. 6B. Effect of different salts of OHOD on human lung cancer in an animal cancer model. The effect of different doses of sodium salt of OHOD (Na-OHOD) are shown on tumour volumes in mice infected with SF767 cells and treated with vehicle (control, 0 mg/kg), 100 mg/kg (100), 200 mg/kg (200), 400 mg/kg (400) and 600 mg/kg (600) for 50 days. * p<0.05; ***p<0.001.
# One important characteristic of the molecules covered in the present invention is that they can form various types of salts. FIG. 6A and Table 5 show the therapeutic effects of various α-derivatives of cis-monounsaturated fatty acids and their salts. […] The specificity of this effect is determined by the relation between the dose and the effect these molecules have on the volume of human tumours implanted in animals (FIG. 6B).
# hypertensive rats = assay: Arterial pressure in hypertensive rats after 8-day treatment (Table 5); type: in vivo, rat; settings: arterial pressure, hypertensive rats, 8-day treatment, 400 mg/kg oral
# [5] = Levels of cholesterol, triglycerides and glucose in rats after oral treatment; type: in vivo, rat; settings: rats, daily dose of 600 mg/kg oral; untreated controls = 100%
# Method: FIG. 13. The four bars, from left to right respectively, show the effect of treatments with vehicle (control, first bar), OHOD at 200 mg/kg (second bar), OHOD at 400 mg/kg (third bar) and OHOD at 600 mg/kg (fourth bar) on the cholesterol levels (group of four bars to the left), triglycerides (group of four bars in the middle) and glucose (group of four bars to the right). The treatments were oral in all cases and were maintained for 30 days. The values indicated are the average obtained in 6 animals per group.
# FIG. 14. Effect of treatment with vehicle (control) or with the fatty acids of the invention (600 mg/kg) on the levels of cholesterol, triglycerides and glucose. The values indicated are the average of the values obtained in 6 animals. Each group of three bars represents treatment with a different fatty acid with the left bar corresponding to cholesterol, the middle bar to triglycerides and the right bar to glucose.
# Metabolic diseases form a set of pathologies characterised by the accumulation or deficit of certain molecules (cholesterol, triglycerides, glucose, etc.) in the serum or tissues. These changes are the reflection of dysfunctions that are normally associated with errors in the activity of certain enzymes or in the control of these proteins. Among the most important metabolopathies are hypercholesterolemia (elevated levels of cholesterol), hypertriglyceridemia (elevated levels of triglycerides) and diabetes (elevated levels of glucose). These pathologies have high rates of incidence, morbidity and mortality, so that treatment is a first order necessity. […] For these experiments, the dose of fatty acid indicated (0, 200, 400 and 600 mg/kg) was supplied daily via the oral route. At the end of the treatment (30 days), blood was sampled from control and treated animals (n=6) and the levels of cholesterol, triglycerides and glucose were determined using standard colorimetric methods.
# as §1
# [6] = Body weight of rats on cafeteria diet, no pre-treatment (Table 5); type: in vivo, rat; settings: cafeteria diet for 2 weeks, 300 mg/kg daily oral, no pre-treatment
# Description: as §2
inhibition of COX-1 activity (% of control) [3],cellular concentration of COX-2 (% of control) (cyclooxygenase-2 (COX-2)),IC50 (A549 cells),IC50 (SF767 human tumour cells),SMILES,tumour volume (prevention of tumour development) [1],Final weight [2],"IL-6, LPS + OHHD (IL-6)","TNF-α, LPS + OHHD (TNF-α)","IL-10, LPS + OHHD (IL-10)","IL-1b, LPS + OHHD (IL-1b)","IL-8, LPS + OHHD (IL-8)",volume of tumours (percent compared to control) [4],PA (control 214 mmHg) (hypertensive rats),% control CHO (cholesterol) [5],% control TG (triglycerides) [5],Body weight (g) (control = 311 g) [6]
more significant effect,more significant effect,–,–,"CCCCCC/C=C\CCCCCCC(O)C(=O)O (stereo not drawn) [OHHD, α-Hydroxy-cis-Δ9-hexadecenoic]",more significant effect,275 ± 19* g,68 ± 8 pg/mL,65 ± 9 pg/mL,53 ± 3 pg/mL,41 ± 5 pg/mL,529 ± 7 pg/mL,–,–,–,–,–
–,–,81 µM,85 µM,CCCCCCCC/C=C\CCCCCCC(O)C(=O)O.N (stereo not shown) [NH3-OHOD],–,–,–,–,–,–,–,significant reductions in the size of tumours,149 mmHg,59 % control,62 % control,290 g
